# Data: US20250002507A1, “7,8-DIHYDRO-5H-1,6-NAPHTHYRIDINE DERIVATIVES AS POSITIVE ALLOSTERIC MODULATORS OF THE MUSCARINIC ACETYLCHOLINE RECEPTOR M4 FOR TREATING NEUROLOGICAL AND PSYCHIATRIC DISORDERS” (Vanderbilt University, priority 2021, published 2025)
# Like-named read-outs stand apart in the source and are kept apart here.
# Molecular target: T1, Human M4 (Homo sapiens, UniProt P08173)
# T1 construct: expressed in transfected cells
# T1 sequence (P08173 1-479): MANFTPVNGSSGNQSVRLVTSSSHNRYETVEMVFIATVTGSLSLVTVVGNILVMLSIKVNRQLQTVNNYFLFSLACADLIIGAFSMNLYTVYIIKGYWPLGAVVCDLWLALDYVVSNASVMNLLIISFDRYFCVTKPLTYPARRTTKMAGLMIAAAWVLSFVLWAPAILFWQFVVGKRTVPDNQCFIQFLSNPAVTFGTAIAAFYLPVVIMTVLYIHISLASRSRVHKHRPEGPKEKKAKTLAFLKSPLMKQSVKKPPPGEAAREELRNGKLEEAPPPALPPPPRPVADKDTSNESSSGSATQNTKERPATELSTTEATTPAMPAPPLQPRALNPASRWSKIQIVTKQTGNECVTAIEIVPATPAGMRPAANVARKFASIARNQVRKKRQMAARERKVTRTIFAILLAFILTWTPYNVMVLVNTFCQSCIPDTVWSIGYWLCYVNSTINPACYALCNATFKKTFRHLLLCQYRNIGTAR
# Experiment: mAChR M4 cell-based functional assay (calcium flux, potentiation of EC20 acetylcholine response), hM4-Gqi5 CHO-K1 cells
# Conditions: for Emax at 30 µM: CHO-K1, Human M4, % ACh maximum at 30 μM, read-out: Emax (% ACh maximum at 30 μM); for EC50: potentiation of EC20 acetylcholine response, calcium flux, CHO-K1 cells, read-out: Human M4 EC50
# Procedure, shortened: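 CHO-K1 cells stably expressing human M4 with chimeric Gqi5, loaded with Fluo-4 AM 50 min at 37 °C; calcium flux read by FDSS. 11-point 1:3 compound curves added, then EC20 acetylcholine at 144 s; potentiation of the EC20 response fitted by four-parameter logistic to give EC50 and Emax.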
Structure (SMILES),Emax at 30 µM (Table 3) [%],EC50 (Table 3) [nM],Emax at 30 µM (Table 4) [%],EC50 (Table 4) [nM]
"Cc1c(N2CCc3ncc(N4CCCn5nccc54)cc3C2)nn2c(Cl)nnc2c1C [Compound 284, 6-(3-chloro-7,8-dimethyl-[1,2,4]triazolo[4,3-b]pyridazin-6-yl)-3-(6,7-dihydropyrazolo[1,5-a]pyrimidin-4(5H)-yl)-5,6,7,8-tetrahydro-1,6-naphthyridine]",53,545,,
"Cc1c(N2CCc3ncc(C(F)c4ccccc4)cc3C2)nn2c(C(F)(F)F)nnc2c1C (centres unmarked) [Compound 285, 6-(7,8-dimethyl-3-(trifluoromethyl)-[1,2,4]triazolo[4,3-b]pyridazin-6-yl)-3-(fluoro(phenyl)methyl)-5,6,7,8-tetrahydro-1,6-naphthyridine]",88,1060,,
"Cc1c(N2CCc3ncc(N4CCOC(C)(C)C4)cc3C2)nn2c(C(F)(F)F)nnc2c1C [Compound 286, 4-(6-(7,8-dimethyl-3-(trifluoromethyl)-[1,2,4]triazolo[4,3-b]pyridazin-6-yl)-5,6,7,8-tetrahydro-1,6-naphthyridin-3-yl)-2,2-dimethylmorpholine]",94,102,,
"COC1CCN(c2cnc3c(c2)CN(c2nn4c(C(F)(F)F)nnc4cc2C)CC3)C1 (centres unmarked) [Compound 287, 3-(3-methoxypyrrolidin-1-yl)-6-(7-methyl-3-(trifluoromethyl)-[1,2,4]triazolo[4,3-b]pyridazin-6-yl)-5,6,7,8-tetrahydro-1,6-naphthyridine]",82,2360,,
"COC1CCN(c2cnc3c(c2)CN(c2nn4c(C(F)(F)F)nnc4c(C)c2C)CC3)C1 (centres unmarked) [Compound 288, 6-(7,8-dimethyl-3-(trifluoromethyl)-[1,2,4]triazolo[4,3-b]pyridazin-6-yl)-3-(3-methoxypyrrolidin-1-yl)-5,6,7,8-tetrahydro-1,6-naphthyridine]",77,940,,
"Cc1ccc(Oc2cnc3c(c2)CN(c2nn4cnnc4c(C)c2C)CC3)c(F)c1 [Compound 289, 6-(7,8-dimethyl-[1,2,4]triazolo[4,3-b]pyridazin-6-yl)-3-(2-fluoro-4-methylphenoxy)-5,6,7,8-tetrahydro-1,6-naphthyridine]",102,265,,
"Cc1ccc(Oc2cnc3c(c2)CN(c2nn4c(C(F)(F)F)nnc4cc2C)CC3)c(F)c1 [Compound 290, 3-(2-fluoro-4-methylphenoxy)-6-(7-methyl-3-(trifluoromethyl)-[1,2,4]triazolo[4,3-b]pyridazin-6-yl)-5,6,7,8-tetrahydro-1,6-naphthyridine]",69,1680,,
"Cc1ccc(Oc2cnc3c(c2)CN(c2nn4c(C(F)(F)F)nnc4c(C)c2C)CC3)c(F)c1 [Compound 291, 6-(7,8-dimethyl-3-(trifluoromethyl)-[1,2,4]triazolo[4,3-b]pyridazin-6-yl)-3-(2-fluoro-4-methylphenoxy)-5,6,7,8-tetrahydro-1,6-naphthyridine]",67,1880,,
"COC1CCCN(c2cnc3c(c2)CN(c2nn4c(C(F)(F)F)nnc4c(C)c2C)CC3)C1 (centres unmarked) [Compound 292, 6-(7,8-dimethyl-3-(trifluoromethyl)-[1,2,4]triazolo[4,3-b]pyridazin-6-yl)-3-(3-methoxypiperidin-1-yl)-5,6,7,8-tetrahydro-1,6-naphthyridine]",106,556,,
"Cc1cc2nncn2nc1N1CCc2ncc(Oc3ccc(F)cc3F)cc2C1 [Compound 293, 3-(2,4-difluorophenoxy)-6-(7-methyl-[1,2,4]triazolo[4,3-b]pyridazin-6-yl)-5,6,7,8-tetrahydro-1,6-naphthyridine]",96,155,,
"Cc1cc2nncn2nc1N1CCc2ncc(Oc3cccc(F)c3F)cc2C1 [Compound 294, 3-(2,3-difluorophenoxy)-6-(7-methyl-[1,2,4]triazolo[4,3-b]pyridazin-6-yl)-5,6,7,8-tetrahydro-1,6-naphthyridine]",103,101,,
"Cc1cc2nncn2nc1N1CCc2ncc(Oc3cc(F)ccc3F)cc2C1 [Compound 295, 3-(2,5-difluorophenoxy)-6-(7-methyl-[1,2,4]triazolo[4,3-b]pyridazin-6-yl)-5,6,7,8-tetrahydro-1,6-naphthyridine]",109,41,,
"Cc1cc2nnc(C(F)(F)F)n2nc1N1CCc2ncc(Oc3ccc(F)cc3F)cc2C1 [Compound 296, 3-(2,4-difluorophenoxy)-6-(7-methyl-3-(trifluoromethyl)-[1,2,4]triazolo[4,3-b]pyridazin-6-yl)-5,6,7,8-tetrahydro-1,6-naphthyridine]",96,1120,,
"Cc1cc2nnc(C(F)(F)F)n2nc1N1CCc2ncc(Oc3cccc(F)c3F)cc2C1 [Compound 297, 3-(2,3-difluorophenoxy)-6-(7-methyl-3-(trifluoromethyl)-[1,2,4]triazolo[4,3-b]pyridazin-6-yl)-5,6,7,8-tetrahydro-1,6-naphthyridine]",100,1100,,
"Cc1cc2nnc(C(F)(F)F)n2nc1N1CCc2ncc(Oc3cc(F)ccc3F)cc2C1 [Compound 298, 3-(2,5-difluorophenoxy)-6-(7-methyl-3-(trifluoromethyl)-[1,2,4]triazolo[4,3-b]pyridazin-6-yl)-5,6,7,8-tetrahydro-1,6-naphthyridine]",109,379,,
"Cc1c(N2CCc3ncc(Oc4ccc(F)cc4F)cc3C2)nn2c(C(F)(F)F)nnc2c1C [Compound 299, 3-(2,4-difluorophenoxy)-6-(7,8-dimethyl-3-(trifluoromethyl)-[1,2,4]triazolo[4,3-b]pyridazin-6-yl)-5,6,7,8-tetrahydro-1,6-naphthyridine]",111,216,,
"Cc1c(N2CCc3ncc(Oc4cccc(F)c4F)cc3C2)nn2c(C(F)(F)F)nnc2c1C [Compound 300, 3-(2,3-difluorophenoxy)-6-(7,8-dimethyl-3-(trifluoromethyl)-[1,2,4]triazolo[4,3-b]pyridazin-6-yl)-5,6,7,8-tetrahydro-1,6-naphthyridine]",87,969,,
"Cc1c(N2CCc3ncc(Oc4cc(F)ccc4F)cc3C2)nn2c(C(F)(F)F)nnc2c1C [Compound 301, 3-(2,5-difluorophenoxy)-6-(7,8-dimethyl-3-(trifluoromethyl)-[1,2,4]triazolo[4,3-b]pyridazin-6-yl)-5,6,7,8-tetrahydro-1,6-naphthyridine]",85,820,,
"Cc1c(N2CCc3ncc(Oc4ccc(F)cc4F)cc3C2)nn2cnnc2c1C [Compound 302, 3-(2,4-difluorophenoxy)-6-(7,8-dimethyl-[1,2,4]triazolo[4,3-b]pyridazin-6-yl)-5,6,7,8-tetrahydro-1,6-naphthyridine]",93,177,,
"Cc1c(N2CCc3ncc(Oc4cc(F)ccc4F)cc3C2)nn2cnnc2c1C [Compound 303, 3-(2,5-difluorophenoxy)-6-(7,8-dimethyl-[1,2,4]triazolo[4,3-b]pyridazin-6-yl)-5,6,7,8-tetrahydro-1,6-naphthyridine]",96,86,,
"Cc1c(N2CCc3ncc(Oc4cccc(F)c4F)cc3C2)nn2cnnc2c1C [Compound 304, 3-(2,3-difluorophenoxy)-6-(7,8-dimethyl-[1,2,4]triazolo[4,3-b]pyridazin-6-yl)-5,6,7,8-tetrahydro-1,6-naphthyridine]",,,93,348
"Cc1c(N2CCc3ncc(OCC(F)(F)F)cc3C2)nn2cnnc2c1C [Compound 305, 6-(7,8-dimethyl-[1,2,4]triazolo[4,3-b]pyridazin-6-yl)-3-(2,2,2-trifluoroethoxy)-5,6,7,8-tetrahydro-1,6-naphthyridine]",,,112,1870
"Cc1c(N2CCc3ncc(N4CC(C)Cn5nccc54)cc3C2)nn2c(C(F)(F)F)nnc2c1C (centres unmarked) [Compound 306, 6-(7,8-dimethyl-3-(trifluoromethyl)-[1,2,4]triazolo[4,3-b]pyridazin-6-yl)-3-(6-methyl-6,7-dihydropyrazolo[1,5-a]pyrimidin-4(5H)-yl)-5,6,7,8-tetrahydro-1,6-naphthyridine]",,,102,143
"Cc1c(N2Cc3cc(C(F)(F)F)cnc3CC2C)nn2cnnc2c1C (centres unmarked) [Compound 307, 6-(7,8-Dimethyl-[1,2,4]triazolo[4,3-b]pyridazin-6-yl)-7-methyl-3-(trifluoromethyl)-5,6,7,8-tetrahydro-1,6-naphthyridine]",,,96,299
"Cc1c(N2CCc3ncc(Cc4ccccc4F)cc3C2)nn2cnnc2c1C [Compound 308, 6-(7,8-dimethyl-[1,2,4]triazolo[4,3-b]pyridazin-6-yl)-3-(2-fluorobenzyl)-5,6,7,8-tetrahydro-1,6-naphthyridine]",,,91,110
